The record followed here is US8148365B2 (priority 2006, dated 2012).

Counter-ions that a name gives are not always drawn. Bounds are passed on as bounds.

One may read the IC50 as the point on the concentration scale where inhibition reaches its midpoint. A low value points to higher potency.

This test addresses α7-subtype of nicotinic receptors (Rattus norvegicus, UniProt Q05941). Kind of test: biochemical. It counts as binding.

Chain of α7-subtype of nicotinic receptors (Q05941 23-502): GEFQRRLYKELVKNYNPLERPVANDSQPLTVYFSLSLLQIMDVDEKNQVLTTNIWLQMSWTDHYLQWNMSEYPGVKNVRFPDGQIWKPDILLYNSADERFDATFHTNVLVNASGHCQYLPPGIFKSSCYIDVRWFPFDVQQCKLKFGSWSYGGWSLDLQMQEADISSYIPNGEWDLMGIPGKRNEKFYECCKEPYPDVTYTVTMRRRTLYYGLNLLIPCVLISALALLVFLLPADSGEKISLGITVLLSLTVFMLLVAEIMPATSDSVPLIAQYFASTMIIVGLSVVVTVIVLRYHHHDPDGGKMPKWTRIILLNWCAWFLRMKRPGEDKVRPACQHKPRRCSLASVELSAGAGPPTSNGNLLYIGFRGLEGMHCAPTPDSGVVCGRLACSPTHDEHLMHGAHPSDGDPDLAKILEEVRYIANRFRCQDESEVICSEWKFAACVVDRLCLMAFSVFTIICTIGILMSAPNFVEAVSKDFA

On to `O=C(Nc1cnc(N2CCN3CCC2CC3)nc1)c1ccccc1` [Compound 1, N-[2-(1,4-Diaza-bicyclo[3.2.2]non-4-yl)-pyrimidin-5-yl]-benzamide hydrochloric acid salt], for which the IC50 was less than 100 nM.
